Assay results from the NIST ThermoML archive (doi:10.1007/s10765-005-8089-2).
Numbers after ± are expanded uncertainties.

Columns and labels:
[1] = Liquid
[2] = xn = mol fraction of the nth substance listed; conditions: Liquid, Falling or rolling sphere viscometry, x1 = 1

CCO [ethanol]
viscosity [mPa·s], [1], Falling or rolling sphere viscometry
Conditions | 100 kPa | 20000 kPa | 40000 kPa | 60000 kPa | 80000 kPa | 100000 kPa
293.15 K | 1.194 ± 0.026 | 1.344 ± 0.029 | 1.494 ± 0.032 | 1.647 ± 0.035 | 1.797 ± 0.039 | 1.955 ± 0.042
313.15 K | 0.826 ± 0.018 | 0.948 ± 0.02 | 1.059 ± 0.023 | 1.171 ± 0.025 | 1.282 ± 0.028 | 1.392 ± 0.03
333.15 K | 0.59 ± 0.013 | 0.683 ± 0.015 | 0.769 ± 0.017 | 0.851 ± 0.018 | 0.934 ± 0.02 | 1.015 ± 0.022
353.15 K | – | 0.51 ± 0.011 | 0.574 ± 0.012 | 0.636 ± 0.014 | 0.699 ± 0.015 | 0.763 ± 0.016

CCO [ethanol] + Cc1ccccc1
viscosity [mPa·s], [2]
Conditions | 100 kPa | 20000 kPa | 40000 kPa | 60000 kPa | 80000 kPa | 100000 kPa
293.15 K | 1.194 ± 0.026 | 1.344 ± 0.029 | 1.494 ± 0.032 | 1.647 ± 0.035 | 1.797 ± 0.039 | 1.955 ± 0.042
313.15 K | 0.826 ± 0.018 | 0.948 ± 0.02 | 1.059 ± 0.023 | 1.171 ± 0.025 | 1.282 ± 0.028 | 1.392 ± 0.03
333.15 K | 0.59 ± 0.013 | 0.683 ± 0.015 | 0.769 ± 0.017 | 0.851 ± 0.018 | 0.934 ± 0.02 | 1.015 ± 0.022
353.15 K | – | 0.51 ± 0.011 | 0.574 ± 0.012 | 0.636 ± 0.014 | 0.699 ± 0.015 | 0.763 ± 0.016

CO [methanol]
viscosity [mPa·s], [1], Capillary tube (Ostwald / Ubbelohde) method
Conditions | 100 kPa | 20000 kPa | 40000 kPa | 60000 kPa | 80000 kPa | 100000 kPa
293.15 K | 0.583 ± 0.012 | 0.646 ± 0.014 | 0.706 ± 0.015 | 0.767 ± 0.016 | 0.83 ± 0.017 | 0.894 ± 0.019
313.15 K | 0.445 ± 0.009 | 0.497 ± 0.011 | 0.546 ± 0.012 | 0.593 ± 0.013 | 0.64 ± 0.013 | 0.683 ± 0.014
333.15 K | 0.343 ± 0.007 | 0.386 ± 0.008 | 0.424 ± 0.009 | 0.462 ± 0.01 | 0.501 ± 0.011 | 0.543 ± 0.011
353.15 K | – | 0.303 ± 0.007 | 0.337 ± 0.007 | 0.368 ± 0.008 | 0.4 ± 0.009 | 0.433 ± 0.009
